Results taken from article PMC13053910, “Covalent Protein Inhibitors via Tyrosine and Tryptophan Conjugation with Cyclic Imine Mannich Electrophiles” (Angewandte Chemie (International Ed. in English), 2026).
Blank lines part the entries; values can stand above or below the compound they belong to.

Columns and labels:
[1] = Reaction of cyclic imine Mannich or sulfur fluoride electrophiles with Ac-Tyr-NHMe (HPLC, LC/MS); format: physicochemical
Method: To identify an appropriate warhead, we synthesized or purchased a collection of cyclic imines and incubated them with N‐acetyl‐L‐tyrosine methylamide (Ac‐Tyr‐NHMe) in PBS pH 7 at 37 °C (Table 1). The reactivity was quantified by UV integration on HPLC with LC/MS confirmation of product identity (Figure S1). […] The hydrolysis kinetics of imine 2 were characterized at pD 6 and 7.5 by NMR (Figure S3). […] The Mannich reaction mechanism involves a charged iminium intermediate, and the reaction is frequently catalyzed by Bronsted acids.^[ [36], [37] ^]
Figure 2 Second‐order rate constants for select cyclic imines and a sulfonyl fluoride with aromatic nucleophiles. Reactions were conducted under pseudo‐first‐order conditions with an excess of one reactant, as indicated. The reduction in the concentration of the limiting reactant was measured at various time points by HPLC analysis.
Figure S2: Second order rate constant determination. Reaction of (A) imine 1 (5 mM) with N-Ac-Tyr-NHMe (100 mM) at 37 °C or (B) at R.T. (C) imine 2 (5 mM) with N-Ac-Tyr-NHMe (100 mM) at 37 °C (D) imine 1 (5 mM) with indole-3-butyrate (100 mM) at 37 °C (E) imine 1 (10 mM) with 1 mM 1H-pyrrole-1-propionate (F) iminium 5 (5 mM) with N-Ac-Tyr-NHMe (100 mM) at 37 °C (G) imine 4 (5 mM) with N-Ac-Tyr-NHMe (100 mM) at 37 °C. (H) imine 11 (5 mM) with N-Ac-Tyr-NHMe (100 mM) at 37 °C. (I) imine 13 (5 mM) with N-Ac-Tyr-NHMe (100 mM) at 37 °C.
5.1 General procedure for determination of second order rate constants N-acetyl-l-tyrosine methyl amide (Ac-Tyr-NHMe) (100 mM) was incubated with 5 mM imine 1 in PBS (pH 7) at 37 °C or R.T..

eDHFR L28W = biological target: T1, eDHFR L28W (Escherichia coli, UniProt P0ABQ4, L28W); assay: Covalent labeling of eDHFR L28W by LC/MS; format: binding, E. coli; details: 10 µM protein, 10 µM compound, overnight, 37 °C
T1 construct: made in house; host or cells: E. coli (BL21 CodonPlus RIL or Rosetta 2), pET-28b(+)
Excerpt: (§1) Similarly, we prepared eDHFR tyrosine and tryptophan mutants at position 28 to assess labeling with TMP‐Im (Figure 3b). […] We conducted trypsin digestion of the labeled L28Y protein and localized the modification to the intended tyrosine by MS/MS fragmentation (Figure S9A). To assess selectivity over thiols, we tested labeling of the cysteine mutant. […] This labeling was reversed with GSH treatment, which is consistent with the reversibility of thioaminal formation (Figure S10).
(§2) Reactions with thiol mutant L28C were conducted in the presence of 5 mM glutathione and 5 mM TCEP. The observed mass differences of labeled and unlabeled proteins agree with the expected mass change of 428 Da.

eDHFR L28Y = biological target: T2, eDHFR L28Y (Escherichia coli, UniProt P0ABQ4, L28Y); assay: Covalent labeling of eDHFR L28Y by LC/MS; format: binding, E. coli
T2 construct: made in house; host or cells: E. coli (BL21 CodonPlus RIL or Rosetta 2), pET-28b(+)
Excerpt: as §1, §2
Figure S10. Ligand directed labeling in the presence of thiols. […] B) TMP-Im (10 µM) was incubated with eDHFR L28C (10 µM) overnight in the absence (left and center) or presence of 5 mM GSH with 5 mM TCEP. For the center panel, after the labeling reaction, GSH (5 mM) was added and allowed to incubated overnight.

[2] = Stability in bovine serum-containing cell media (LC/MS); format: in vitro ADME; details: 20 µM, DMEM with 15% FBS, 24 h, 37 °C
Method: (§3) To be suitable for chemical probe and therapeutic applications, the warhead should show good stability. In general, we found the iminolactam warheads to be quite stable. Compound 1 was stable as a solid at room temperature for over 3 months. […] After 24‐h in aqueous buffer, compounds were treated with sodium cyanoborohydride. […] The synthetic strategy of in situ formation of imines by periodate treatment was pursued to avoid concerns of warhead reactivity with the ligand itself to either the peptide backbone or the phenoxyphenyl aryl group. This appears to have been unnecessary, at least for the iminolactam warhead. […] The more reactive ester imine may be forming semi‐stable cyclized products with the amide backbone, which have been observed previously with peptide aldehydes.^[ [51], [52] ^] Due to these issues, we selected compound P1b for further characterization.
Figure S17. Stability of cyclic imine inhibitors to serum-containing cell culture media. […] The protein fraction was then precipitated with addition of 2 volumes of 1:1 EtOH:acetonitrile and overnight incubation at -20 °C. Samples were centrifuged 16,000 g for 30 minutes. Supernatants were filtered through a 0.5 micro spin filter and evaporated with a speed vacuum. The compounds were resuspended in PBS and analzyed by LC/MS. […] Overlaid spectra of UV at 215 nm are shown and are representative of 3 replicates.

eDHFR wt = biological target: T3, eDHFR wt (Escherichia coli, UniProt P0ABQ4); assay: Covalent labeling of eDHFR wild type by LC/MS; format: binding, E. coli; details: 10 µM protein, 10 µM compound, overnight, 37 °C
T3 construct: made in house; host or cells: E. coli (BL21 CodonPlus RIL or Rosetta 2), pET-28b(+)

[3] = Stability of warheads and inhibitors (solid, PBS, hydrolysis); format: physicochemical; details: 24 h in aqueous buffer, then sodium cyanoborohydride, mass spectrometry
Method: as §3

eDHFR L28C = biological target: T4, eDHFR L28C (Escherichia coli, UniProt P0ABQ4, L28C); assay: Covalent labeling of eDHFR L28C by LC/MS; format: binding, E. coli
T4 construct: made in house; host or cells: E. coli (BL21 CodonPlus RIL or Rosetta 2), pET-28b(+)
Excerpt: as §1, §2
Figure S10. Ligand directed labeling in the presence of thiols. A) TMP-Im (10 µM) was incubated with eDHFR L28Y (10 µM) overnight at RT in the absence (left) or presence of 5 mM GSH with 5 mM TCEP. B) TMP-Im (10 µM) was incubated with eDHFR L28C (10 µM) overnight in the absence (left and center) or presence of 5 mM GSH with 5 mM TCEP. For the center panel, after the labeling reaction, GSH (5 mM) was added and allowed to incubated overnight.

[4] = electrophile 5 mM, N‐acetyl‐l‐tyrosine methyl amide 100 mM, PBS pH 7, 37 °C

reactivity (t1/2) [1, 4]: 2.4 ± 0.1 h
Compound: O=S1(=O)N=Cc2ccccc21 [compound 11]

reactivity (t1/2) ([1]; electrophile 5 mM, Ac-Tyr-NHMe 100 mM, PBS pH 7, 37 °C, competing hydrolysis): ∼40 mins ^b)
Compound: O=C1C=N[C@H]2CCCC[C@@H]2O1 [compound 2]

reactivity (t1/2) ([1]; buffer, pH 7): 6.1 ± 0.2 h
Compound: 2-hydroxyquinoxaline [compound 4]

Compound: O=C(O)c1ccc(OS(=O)(=O)F)cc1 [compound 14, reference compound]
reactivity (t1/2) [1, 4]: ∼48 h

Compound: COc1cc(Cc2cnc(N)nc2N)cc(OC)c1OCCCCN1CCN=CC1=O [TMP‐Im]
covalent labeling of eDHFR L28W (eDHFR L28W): covalent labeling | covalent labeling of eDHFR L28Y (eDHFR L28Y; 10 µM protein, 10 µM compound, overnight, 37 °C): covalent labeling | effect of GSH on labeling of eDHFR L28Y (eDHFR L28Y; presence of 5 mM GSH): only a slight reduction in reaction conversion | stability in bovine serum‐containing cell media [2]: minimal loss of compounds to the precipitated protein fraction or degradation | stability in bovine serum‐containing cell media ([2]; listed as TMP-Im): no degradation or loss to the protein fraction | covalent labeling of eDHFR wild type (eDHFR wt): no labeling | stability to long‐term incubation in PBS [3]: stability over the 24 h | labeling of eDHFR L28C cysteine mutant (eDHFR L28C; absence of additional thiols, TCEP as reductant): A small amount of labeling | labeling of eDHFR L28C cysteine mutant (eDHFR L28C; in the presence of 5 mM glutathione (GSH) and 5 mM TCEP): no detectable labeled protein
